We go through one compound from article PMC9664868, “Dephospho-Coenzyme A Kinase Is an Exploitable Drug Target against Plasmodium falciparum: Identification of Selective Inhibitors by High-Throughput Screening of a Large Chemical Compound Library” (Antimicrobial Agents and Chemotherapy, 2022).

Structures are written as SMILES.

In assay [1] the test system is HepG2 cell line. Briefly: Cytotoxicity assay (Cell Counting Kit-8). As to conditions: Homo sapiens, HepG2; Table S1; means ± SEM; read-out: IC50 (μM) HepG2. The class given is cell-based, human. As to the method: Cytotoxicity against human cells was evaluated using the human liver carcinoma HepG2 cell line. HepG2 cells were cultured in D-MED supplemented with 4 mM L-glutamine and 10% fetal bovine serum (FBS) in a 75-cm^2 flask (Violamo) at 37°C. For the cytotoxicity assay, HepG2 cells in semiconfluent state were detached from the flask by incubating the cells with 5 mL D-MEM containing 0.25% trypsin-EDTA. After detachment, HepG2 cells were resuspended in D-MEM-supplemented L-glutamine and FBS, and cell viability was evaluated by incubating cells with 0.4% Trypan blue on a hemocytometer. An approximately 50-μL suspension containing 3,000 cells was dispensed into each well on a 384-well clear-bottom plate using a Multidrop Combi dispenser. Compounds dissolved in DMSO had been dispensed into wells to yield final concentrations of 100, 20, 4, 0.8, and 0.2 μM before cells were added. After cells were added to the plates, they were cultured at 37°C under 5% CO2. After 48 h cultivation, 5 μL of Cell Counting Kit-8 (Dojindo, Japan) was added, and the plates were further incubated for 2 h to assess cell growth and survival.
On the technique in general: Tetrazolium dyes change colour on reduction, which living cells bring about.

Assay [2] addresses T1, HsCOASY (Homo sapiens, UniProt Q13057).
T1 construct: His tag (pCold1 vector); made in house; host or cells: Escherichia coli BL21Star (DE3)
T1 sequence (Q13057 1-564): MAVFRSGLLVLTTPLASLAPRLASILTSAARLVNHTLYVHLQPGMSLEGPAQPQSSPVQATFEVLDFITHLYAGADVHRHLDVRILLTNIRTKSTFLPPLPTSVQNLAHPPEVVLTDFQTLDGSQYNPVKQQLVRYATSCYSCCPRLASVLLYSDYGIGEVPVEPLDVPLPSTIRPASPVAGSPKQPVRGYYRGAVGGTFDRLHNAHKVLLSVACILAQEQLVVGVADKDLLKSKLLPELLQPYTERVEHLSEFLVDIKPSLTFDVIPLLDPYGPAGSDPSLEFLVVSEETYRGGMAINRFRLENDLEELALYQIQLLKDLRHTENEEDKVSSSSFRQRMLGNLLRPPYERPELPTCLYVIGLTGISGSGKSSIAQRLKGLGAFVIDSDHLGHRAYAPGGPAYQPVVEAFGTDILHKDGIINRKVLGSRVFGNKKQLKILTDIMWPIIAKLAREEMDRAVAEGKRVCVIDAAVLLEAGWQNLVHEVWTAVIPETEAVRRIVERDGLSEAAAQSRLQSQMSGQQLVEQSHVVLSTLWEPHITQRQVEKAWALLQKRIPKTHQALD
Briefly: HsCOASY counterassay. The class given is biochemical. As to conditions: reciprocal plot analysis. The method, then: PfDPCK and HsCOASY activity was measured by quantifying ADP produced in the reaction by a coupling assay using the ADP Hunter Plus assay kit (DiscoverX, USA) according to the manufacturer's instructions. Briefly, enzymatic reactions were carried out in a 20-μL mixture of assay buffer containing 15 mM HEPES, 20 mM NaCl, 1 mM EGTA, 0.02% Tween 20, 10 mM MgCl2, 0.1% bovine gamma globulin, 50 ng of recombinant PfDPCK or HsCOASY, 4 to 256 μM dephospho-CoA, and 5 to 300 μM ATP on a black microplate. All reactions were performed for 2 h, reagents A and B were added, and they were then reincubated for 60 min at 30°C. After reactions were terminated by addition of ADP Hunter Stop solution, the fluorescent signal was measured using SpectraMax Paradigm (Molecular Devices, CA, USA) at excitation and emission wavelengths of 530 and 590 nm, respectively. The kinetic parameters were calculated using the nonlinear regression function using the single saturating concentrations of the substrates by the GraphPad Prism software (GraphPad Software Inc., San Diego, CA). The experiments were repeated three times in triplicate using proteins purified from independent cultures. […]
The primary hits were reassayed in quadruplicate (n = 4) as in the primary screening. We next tested the confirmed secondary hits to exclude false positives that inhibit coupled fluorescence assay, but not PfDPCK. […]

For the compound `CC(C)(C)c1cc(C(=O)Cn2c(NCCO)nc3ccccc32)cc(C(C)(C)C)c1O` [Compound A-15], the IC50 in assay [1] is 29.9 ± 3.61 µM. In addition, the “inhibition of HsCOASY” value in assay [2] was “inhibits PfDPCK, but not HsCOASY”.

A word on the IC50: it is the midpoint of a concentration-inhibition curve.
